Laboratory results: patent publication US12077503B2, “Substituted cyclic amides and their use as herbicides” (FMC CORPORATION, priority 2015, dated 2024)

What was measured:
Format in all cases: in vivo
[1] = test system: pigweed (Amaranthus retroflexus); assay: Test A preemergence
[2] = test system: giant foxtail (Setaria faberii); assay: Test A preemergence
Method in brief: (§1)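 Seeds sprayed preemergence with a directed soil spray, or plants at 2 to 10 cm height and one- to two-leaf stage sprayed postemergence, with test chemicals in a non-phytotoxic solvent mixture containing surfactant, in loam soil–sand blend. Injury rated visually against untreated controls after about 10 d in greenhouse, 0 (no effect) to 100 (complete control).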

[3] = test system: barnyardgrass (Echinochloa crus-galli); assay: Test A preemergence
Method in brief: as §1

corn (Zea mays) [4] = assay: Test A preemergence
Method in brief: as §1

[5] = test system: velvetleaf (Abutilon theophrasti); assay: Test A preemergence
Method in brief: as §1

[6] = test system: morningglory (Ipomoea spp.); assay: Test A preemergence
Method in brief: as §1

[7] = test system: wheat (Triticum aestivum); assay: Test A preemergence
Method in brief: as §1

[8] = test system: crabgrass, large (Digitaria sanguinalis); assay: Test A preemergence
Method in brief: as §1

[9] = test system: pigweed (Amaranthus retroflexus); assay: Test A postemergence
Method in brief: as §1

[10] = test system: giant foxtail (Setaria faberii); assay: Test A postemergence
Method in brief: as §1

[11] = test system: barnyardgrass (Echinochloa crus-galli); assay: Test A postemergence
Method in brief: as §1

corn (Zea mays) [12] = assay: Test A postemergence
Method in brief: as §1

[13] = test system: velvetleaf (Abutilon theophrasti); assay: Test A postemergence
Method in brief: as §1

[14] = test system: morningglory (Ipomoea spp.); assay: Test A postemergence
Method in brief: as §1

[15] = test system: wheat (Triticum aestivum); assay: Test A postemergence
Method in brief: as §1

[16] = test system: crabgrass, large (Digitaria sanguinalis); assay: Test A postemergence
Method in brief: as §1

[17] = test system: sedge, umbrella (small-flower umbrella sedge, Cyperus difformis); assay: Test B flooded paddy test; details: Flood, 250 g ai/ha; 0 to 100 scale where 0 is no effect and 100 is complete control; 13 to 15 d
Method in brief: (§2)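 Flooding to 3 cm over soil accompanied treatment, which consisted of adding compound to the standing water around 2-leaf plants; depth was then maintained. Visual assessment versus controls followed at 13 to 15 d (scale 0–100, 0 meaning no effect).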

rice (Oryra sativa) = assay: Test B flooded paddy test; details: Flood, 250 g ai/ha; 0 to 100 scale where 0 is no effect and 100 is complete control; 13 to 15 d
Method in brief: as §2

[18] = test system: barnyardgrass (Echinochloa crus-galli); assay: Test B flooded paddy test; details: Flood, 250 g ai/ha; 0 to 100 scale where 0 is no effect and 100 is complete control; 13 to 15 d
Method in brief: as §2

[19] = test system: ducksalad (Heteranthera limosa); assay: Test B flooded paddy test; details: Flood, 250 g ai/ha; 0 to 100 scale where 0 is no effect and 100 is complete control; 13 to 15 d
Method in brief: as §2

[20] = 125 g ai/ha, preemergence, 0 to 100 scale (0 no effect, 100 complete control)
[21] = Preemergence, 500 g ai/ha, 0 is no effect, 100 is complete control
[22] = 500 g ai/ha, postemergence, 0 to 100 scale, 0 no effect, 100 complete control
[23] = Postemergence, 125 g ai/ha, visual injury, 0 to 100 scale (0 no effect, 100 complete control), approx. 10 d

CN(C)c1cccc(C2CNC(=O)C2C(=O)Nc2ccccc2F)c1 (stereo not drawn) [Compound 360]
0: Plant response rating, Pigweed [1, 20] | Pigweed plant response rating (0 to 100 scale) [1, 21] | Plant response rating, Foxtail, Giant [2, 20] | Foxtail, Giant plant response rating (0 to 100 scale) [2, 21] | Plant response rating, Barnyardgrass [3, 20] | Barnyardgrass plant response rating (0 to 100 scale) [3, 21] | Plant response rating, Corn (corn (Zea mays) [4]; [20]) | Corn plant response rating (0 to 100 scale) (corn (Zea mays) [4]; [21]) | Plant response rating, Velvetleaf [5, 20] | Velvetleaf plant response rating (0 to 100 scale) [5, 21] | Plant response rating, Morningglory [6, 20] | Morningglory plant response rating (0 to 100 scale) [6, 21] | Plant response rating, Wheat [7, 20] | Wheat plant response rating (0 to 100 scale) [7, 21] | Plant response rating, Crabgrass, Large [8, 20] | Crabgrass, Large plant response rating (0 to 100 scale) [8, 21] | Plant response rating, Pigweed [9, 22] | Plant response rating, Pigweed [9, 23] | Plant response rating, Foxtail, Giant [10, 22] | Plant response rating, Foxtail, Giant [10, 23] | Plant response rating, Barnyardgrass [11, 22] | Plant response rating, Barnyardgrass [11, 23] | Plant response rating, Corn (corn (Zea mays) [12]; [22]) | Plant response rating, Corn (corn (Zea mays) [12]; [23]) | Plant response rating, Velvetleaf [13, 22] | Plant response rating, Velvetleaf [13, 23] | Plant response rating, Morningglory [14, 22] | Plant response rating, Morningglory [14, 23] | Plant response rating, Wheat [15, 22] | Plant response rating, Wheat [15, 23] | Plant response rating, Crabgrass, Large [16, 22] | Plant response rating, Crabgrass, Large [16, 23] | Plant response rating, Sedge, Umbrella [17] | Plant response rating, Rice (rice (Oryra sativa)) | Plant response rating, Barnyardgrass [18] | Plant response rating, Ducksalad [19]
